Here are results for four molecules from ChEMBL document CHEMBL5126609, “Design, Synthesis, and Pharmacological Evaluation of Benzimidazolo-thiazoles as Potent CXCR3 Antagonists with Therapeutic Potential in Autoimmune Diseases: Discovery of ACT-672125” (J Med Chem, 2022).

In brackets after ≈: the same amount, converted by molar mass.

Series [1] is described as follows: Unbound fraction in mouse plasma by equilibrium based LC-MS/MS analysis.
Series [2] is described as follows: Solubility of the compound in FaSSIF. The note with it: simulated gi fluid.
Series [3] is described as follows: Clearance in Balb/c mouse at 10 mg/kg, po. Conditions: in vivo.
Series [4] is described as follows: Unbound fraction in rat plasma by equilibrium based LC-MS/MS analysis.
Series [5] in a line: Solubility of the compound in FeSSIF. The note with it: simulated gi fluid.
Series [6] deals with Voltage-gated inwardly rectifying potassium channel KCNH2 (Homo sapiens, UniProt Q12809). Briefly: Inhibition of hERG by Qpatch-clamp method.
Chain of Voltage-gated inwardly rectifying potassium channel KCNH2 (Q12809 whole entry): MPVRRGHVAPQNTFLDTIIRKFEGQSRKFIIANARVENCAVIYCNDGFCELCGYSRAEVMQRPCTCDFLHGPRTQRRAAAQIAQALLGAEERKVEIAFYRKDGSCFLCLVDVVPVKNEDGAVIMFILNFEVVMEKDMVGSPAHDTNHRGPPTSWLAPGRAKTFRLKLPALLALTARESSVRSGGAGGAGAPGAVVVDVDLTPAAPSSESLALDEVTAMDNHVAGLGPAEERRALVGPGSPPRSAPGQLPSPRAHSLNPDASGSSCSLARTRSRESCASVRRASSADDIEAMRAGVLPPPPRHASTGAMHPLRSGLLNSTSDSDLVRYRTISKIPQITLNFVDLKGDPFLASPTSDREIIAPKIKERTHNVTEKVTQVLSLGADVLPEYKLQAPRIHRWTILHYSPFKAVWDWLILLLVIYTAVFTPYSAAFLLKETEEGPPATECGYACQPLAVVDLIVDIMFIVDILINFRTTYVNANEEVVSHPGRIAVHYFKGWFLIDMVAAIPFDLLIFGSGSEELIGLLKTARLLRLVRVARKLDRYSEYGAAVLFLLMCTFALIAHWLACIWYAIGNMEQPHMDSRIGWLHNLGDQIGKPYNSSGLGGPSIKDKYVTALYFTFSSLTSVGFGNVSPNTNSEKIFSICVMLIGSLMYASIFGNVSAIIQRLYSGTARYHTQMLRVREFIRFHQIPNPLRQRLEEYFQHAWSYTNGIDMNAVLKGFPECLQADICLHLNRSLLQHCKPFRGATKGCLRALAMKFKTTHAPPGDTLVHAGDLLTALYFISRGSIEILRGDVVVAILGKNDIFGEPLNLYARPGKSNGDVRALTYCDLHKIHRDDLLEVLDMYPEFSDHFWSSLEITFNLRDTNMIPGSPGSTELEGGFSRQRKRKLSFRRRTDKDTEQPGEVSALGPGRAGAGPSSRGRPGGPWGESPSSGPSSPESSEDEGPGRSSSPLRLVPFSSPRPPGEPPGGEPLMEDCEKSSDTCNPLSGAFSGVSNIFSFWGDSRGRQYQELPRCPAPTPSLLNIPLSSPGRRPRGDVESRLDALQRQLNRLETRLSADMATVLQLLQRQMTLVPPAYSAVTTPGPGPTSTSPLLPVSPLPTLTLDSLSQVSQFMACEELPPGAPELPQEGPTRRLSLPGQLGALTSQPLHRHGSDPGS
Series [7] in a line: Lipophilicity, log D of the compound at pH 7.4. Conditions: buffer.
Series [8] in a line: in vitro. The note with it: human, microsomes.
A short description of series [9]: in vitro. Conditions: rat, microsomes.
The nature of series [10]: in vitro. The note with it: mouse, microsomes.
A short description of series [11]: Unbound fraction in human plasma by equilibrium based LC-MS/MS analysis.
A short description of series [12]: Half life in Balb/c mouse at 1 mg/kg, iv. The note with it: in vivo.
For another series, the target named is hERG (KCNH2) (Homo sapiens, UniProt Q12809). Briefly: Inhibition of hERG expressed in CHO cells at 3 uM at -80 mV holding potential assessed as current block incubated for 3 mins by Qpatch clamp method relative to control.
Chain of hERG (KCNH2) (Q12809 whole entry): as above
Series [13] in a line: in vivo. The note with it: Balb/c, mouse, po, 10 mg/kg.
Series [14] in a line: in vivo. The note with it: Wistar, rat, po, 2 mg/kg.
The nature of series [15]: in vivo. The note with it: Wistar, rat, po, 2 mg/kg. This is another data set of the same source.
A short description of series [16]: Half life in Wistar rat at 0.2 mg/kg, iv. Conditions: in vivo.
Series [17] can be described thus: Clearance in Wistar rat at 2 mg/kg, po. Conditions: in vivo.
The target of series [18] is T1, C-X-C chemokine receptor type 3 (Homo sapiens, UniProt P49682).
T1 sequence (P49682 whole entry): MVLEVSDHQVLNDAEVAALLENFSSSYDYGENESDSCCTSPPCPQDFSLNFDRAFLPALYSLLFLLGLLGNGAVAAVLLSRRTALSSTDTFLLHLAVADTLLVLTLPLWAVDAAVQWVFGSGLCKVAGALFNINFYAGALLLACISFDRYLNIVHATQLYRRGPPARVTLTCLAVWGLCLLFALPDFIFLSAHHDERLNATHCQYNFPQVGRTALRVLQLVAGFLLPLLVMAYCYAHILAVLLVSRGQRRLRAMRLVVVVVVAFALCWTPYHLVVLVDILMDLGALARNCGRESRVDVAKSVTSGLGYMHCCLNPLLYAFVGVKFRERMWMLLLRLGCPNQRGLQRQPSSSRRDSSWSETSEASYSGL
Briefly: Antagonist activity at human recombinant CXCR3 in human venous blood assessed as receptor internalization measured for 30 mins in presence of CXCL10 by flow cytometric analysis.

Series [19] can be described thus: in vivo. Conditions: Wistar, rat, po, 2 mg/kg. The source holds these as a separate data set.
In series [20] the target is T1, C-X-C chemokine receptor type 3. Briefly: Antagonist activity at human recombinant CXCR3 expressed in CHO-K1 cells measured after 10 mins in presence of CXCL10 by FLIPR analysis.
Series [21] is described as follows: in vivo. The note with it: Balb/c, mouse, po, 10 mg/kg. This is another data set of the same source.
The nature of series [22]: in vivo. Conditions: Balb/c, mouse, po, 10 mg/kg. This is another data set of the same source.
Series [23] is described as follows: Apparent permeability across apical to basolateral side in MDCK1 cells by LC-MS/MS analysis. The note with it: dog, MDCK.
Series [24] is described as follows: Half life in Wistar rat at 0.5 mg/kg, iv. Conditions: in vivo.

In the case of `C[C@@H]1CN(c2sc(C(F)(F)F)nc2-c2nc3ccccc3[nH]2)CCN1C(=O)Cn1cnc2cccnc21`, the fraction unbound stood at 0.01 in series [1], 0.017 in series [4] and 0.023 in series [11]. Further, the values for the solubility in series [2] and in series [5] were 13 µg/mL (≈ 24.7 µM) and 214 µg/mL (≈ 406 µM), respectively. Moreover, the CL/F in series [3] amounted to 41 mL/min/kg. Also, in series [6], the IC50 came out at 1400 nM. The pH-dependent lipophilicity (logD) in series [7] came out at 3.9. Also, the microsomal CLint at 0.25 h, 1 µM in the series “in vitro [8]” was 89 µL/min/mg; in “in vitro [9]” it was 104 µL/min/mg; in the series “in vitro [10]” it was 104 µL/min/mg. Further, the half-life in series [12] was 13.2 min. In addition, on hERG (KCNH2), the inhibition at 0.05 h, 3 µM is 70%. Moreover, in the series “in vivo [13]”, the maximum concentration (Cmax) was 27900 ng/mL.
For the molecule `COc1cc2nc(-c3nc(C(F)(F)F)sc3N3CCN(C(=O)Cn4cnc5cccnc54)[C@H](C)C3)[nH]c2cc1OC`, the AUC in “in vivo [14]” turned out to be 196 ng·h/mL. In “in vivo [15]”, this molecule yielded a bioavailability of 29%. In series [16], the half-life is 30 min. The same molecule came in with a fraction unbound in series [4] of 0.042. The same molecule came in with a solubility in series [5] of 731 µg/mL (≈ 1250 µM). Besides, the figures for the microsomal CLint at 0.25 h, 1 µM in “in vitro [8]” and in the series “in vitro [9]” were 30 µL/min/mg and 53 µL/min/mg, respectively. Further, the CL/F in [17] turned out to be 49 mL/min/kg. Besides, the IC50 in [18] amounted to 144 nM; in [20] it was 3.2 nM. Also, the Tmax in “in vivo [19]” was determined as 30 min. Further, the inhibition at 0.05 h, 3 µM at hERG (KCNH2) amounted to 20%.
For the molecule `Cc1nn(CC(=O)N2CCN(c3sc(C(F)(F)F)nc3-c3nc4ccccc4[nH]3)C[C@H]2C)cc1CN(C)C`, the fraction unbound in [1] came out at 0.053; in series [11], 0.143. For the same molecule, the solubility is 649 µg/mL (≈ 1190 µM) in series [2] and 645 µg/mL (≈ 1180 µM) in [5]. In addition, the AUC in “in vivo [21]” turned out to be 833 ng·h/mL. Further, the log distribution coefficient (logD) in series [7] turned out to be 2.4. Further, the Tmax in “in vivo [22]” was 120 min. Further, the microsomal CLint at 0.25 h, 1 µM in “in vitro [8]” amounted to 37 µL/min/mg; in the series “in vitro [10]”, 29 µL/min/mg. The values for the concentration for half-maximal inhibition (IC50) in series [18] and in series [20] were 330 nM and 2.7 nM, respectively. Also, the inhibition at 0.05 h, 3 µM on hERG (KCNH2) came to 38%. The molecule further returned a Cmax in the series “in vivo [13]” of 258 ng/mL.
As to `Cc1nc(C)n(CC(=O)N2CCN(c3sc(C(F)(F)F)nc3-c3nc4ccccc4[nH]3)C[C@H]2C)n1`, the figures for the fraction unbound in series [1], in series [4] and in series [11] were 0.041, 0.074 and 0.113, respectively. The AUC in the series “in vivo [14]” worked out at 2970 ng·h/mL; in the series “in vivo [21]”, 10800 ng·h/mL. Moreover, in [23], the Papp A→B was found to be 12 ×10⁻⁶ cm/s. Also, the bioavailability in the series “in vivo [15]” is 0.5%. The values for the solubility in series [2] and in series [5] were 440 µg/mL (≈ 872 µM) and more than 850 µg/mL, respectively. In [7], this molecule registered a log distribution coefficient (logD) of 3.3. Also, the Tmax in “in vivo [22]” and in “in vivo [19]” was 30 min in each case. Moreover, the microsomal CLint at 0.25 h, 1 µM was determined as 30 µL/min/mg in “in vitro [8]”, 39 µL/min/mg in the series “in vitro [9]” and 21 µL/min/mg in the series “in vitro [10]”. For the same molecule, in [17], the apparent clearance (CL/F) turned out to be 6 mL/min/kg. Further, the IC50 came out at 237 nM in series [18] and 3.2 nM in series [20]. Further, the half-life in series [24] is 180 min. Further, the inhibition at 0.05 h, 3 µM at hERG (KCNH2) is 45%. This molecule registered a Cmax in the series “in vivo [13]” of 5090 ng/mL.
